Experimental data from patent US6713504B2, “Antifungal molecule 2-(3,4-dimethyl-2,5-dihydro-1H-pyrrol-2-yl)-1-methylethyl pentanoate” (Council of Scientific & Industrial Research, priority 2002, dated 2004).
Values after ≈ are worked out from the molar mass of the structure shown.

Key:
Type in all cases: cell-based
A. flavus = assay: Microbroth dilution assay; design: key to Activity of the compound against Aspergillus sp. after 48 hrs.: +ve if medium appeared clear with out any growth of fungi; −ve if growth was there
Description: (§1) Pathogenic strains of fungi were obtained from the Mycology Department of Vallabhbhai Patel Chest Institute, Delhi. All the strains were grown on Sabouraud dextrose agar at 37° C. The conidia form these cultures were harvested and suspended in Sabouraud maltose broth. The number of conidia was counted using haemocytometer and their number in the suspension was adjusted to as per need of the experiment.
(§2) The antifungal susceptibility of the fungi to various fractions or the purified component was assayed by the microbroth dilution method (Forthergill A. W. and McGough A. W., 1995, Clin. Microbiol. Procedure Handbook. In Vitro susceptibility Testing of Yeast, 5.15.1-5.15.15). The fungal spores were harvested from 96-h cultures and their number adjusted to 1×10^6 per ml. The Sabouraud Dextrose medium was dissolved in glass double distilled water and autoclaved at 10 psi for 15 min. 90-μl medium was added into the wells of cell culture plates. The different concentrations of the extract, fractions or the purified compound were prepared in duplicate wells and then the wells were inoculated with 10 μl of spore suspension. The plates were incubated at 37° C. and examined macroscopically after 48 h for the growth of fungal mycelia. The activity was represented as −ve if growth was there and +ve if medium appeared clear with out any growth of fungi.
(§3) The antifungal susceptibility of the fungi to the purified compound was assayed by the microbroth dilution method. The different concentrations of the purified compound ranging from 21.87 to 350 μg/ml were prepared in duplicate wells by twofold dilution method. The test was done as described above.

A. fumigatus = assay: Microbroth dilution assay; design: key to Activity of the compound against Aspergillus sp. after 48 hrs.: +ve if medium appeared clear with out any growth of fungi; −ve if growth was there
Description: as §1, §2, §3

A. niger = assay: Microbroth dilution assay; design: key to Activity of the compound against Aspergillus sp. after 48 hrs.: +ve if medium appeared clear with out any growth of fungi; −ve if growth was there
Description: as §1, §2, §3

Aspergillus species = assay: Spore germination inhibition assay; conditions: 10 hrs incubation
Description: as §1
The modified spore germination inhibition assay was performed as described earlier (Sureder P. and Janaiah C., 1987, Ind. J. Expt. Biol., 25, 233-234). The fungal species were grown on Sabouraud dextrose agar plates at 37° C. for 96 h. […] The conidia were counted and their number in the suspension was adjusted to 1×10^4 per ml. The standard drug Amphotericin B and test samples were initially dissolved in minimal quantity of dimethylsulfoxide (DMSO) and then diluted with Sabouraud dextrose medium. […] The number of germinated and non-germinated spores was counted. The percent spore germination inhibition (PSGI) was calculated using following formula [formula]
Antifungal Activity of Pure Compound by Spore Germination Inhibition Assay The spore germination inhibition assay was performed to evaluate the activity of the compound. […] The number of germinated and non-germinated spores was counted and the percent spore germination inhibition (PSGI) was calculated. […]

[1] = In vitro cell cytotoxicity by MTT assay; conditions: mouse; 1250.0 μg/ml; RAW cells; MTT; read-out: percent cytotoxicity
Description: (§4) The stock culture of RAW cells was obtained from National Facility for Cell and Tissue Culture, Pune.
(§5) The stock solution of the compound was prepared by dissolving 2.5 mg of the purified compound in minimum amount of DMSO and then diluted with double distilled water to make the final volume 1.0-ml.
(§6) The cells were harvested at the log phase of growth confluency from the flask. The homogeneous suspension of cells was prepared in 2.0 ml of culture medium. The number of cells in the suspension was counted using a hemocytometer and the cell suspension was diluted in such a way so as to obtain 5×10^7 viable cells per ml. The viability of the cells was checked with trypan blue dye exclusion test. The cytotoxicity assay was performed in 96 wells flat bottom tissue culture plates (Nunc Nunclon). The cells (5×10^6) in 100.0 μl volume were seeded into each well. The plate was incubated at 37° C. in atmosphere of 5% (v/v) CO2 for 8 h. The wells were examined microscopically for the formation of monolayer of the cells. […] In +ve control wells, a known cytotoxic protein obtained from A. fumigatus, was used. The ZnSO4 (8.0 mg/L) was used as another +ve toxic material in another set of wells. In negative control wells equivalent amount of the solvent was used. The duplicate wells were used for each concentration of the test compound. The plates were incubated at 37° C. in 5% (v/v) CO2 incubator overnight (12 h). The medium along with floating dead cells from the wells was removed by inverting the plate. Thus, only the live cells sticking to the surface of plate were left in the wells. […] After adding the dye to the wells, the plate was kept at 37° C. in 5% CO2 for 1 h. The tissue culture plate was removed from the incubator and all the dye was aspirated. Only live cells took up the dye. The cells were lysed by adding 100.0 μl of isopropanol-HCl to the wells. After lysis of the cells, the plates were read at 540 nm using plate reader (Spectra Max 190, Molecular Device).
(§7) The toxicity of the compound was expressed as percentage with respect to that obtained in −ve control sample. The percent cytotoxicity was calculated using the formula given below. [formula]
(§8) The percent cytotoxicity was plotted against log concentration of the compound to find out concentration which was cytotoxic to 50% of the cells (CT50).

RAW cells = assay: In vitro cell cytotoxicity by MTT assay
Description: as §4, §5, §6, §7, §8

CCCCC(=O)OC(C)CC1NCC(C)=C1C (centres unmarked) [PC-1, 2-(3,4-dimethyl-2,5-dihydro-1H-pyrrol-2-yl)-1-methylethyl pentanoate]
Activity of the compound against Aspergillus sp. after 48 hrs. (A. flavus; 21.87 μg/ml): −
Activity of the compound against Aspergillus sp. after 48 hrs. (A. flavus; 43.75 μg/ml): −
MIC (A. flavus; Aspergillus flavus, no visual growth, 48 h): 87.5 µg/mL (≈ 366 µM)
Activity of the compound against Aspergillus sp. after 48 hrs. (A. fumigatus; 21.87 μg/ml): −
Activity of the compound against Aspergillus sp. after 48 hrs. (A. fumigatus; 43.75 μg/ml): −
MIC (A. fumigatus; Aspergillus fumigatus, no visual growth, 48 h): 87.5 µg/mL (≈ 366 µM)
Activity of the compound against Aspergillus sp. after 48 hrs. (A. niger; 21.87 μg/ml): −
Activity of the compound against Aspergillus sp. after 48 hrs. (A. niger; 43.75 μg/ml): −
MIC (A. niger; Aspergillus niger, no visual growth, 48 h): 87.5 µg/mL (≈ 366 µM)
MIC by percent spore germination inhibition (Aspergillus species): 87.5 µg/mL (≈ 366 µM)
cytotoxicity at 12 h, 1250 μg/ml [1]: 76%
concentration completely non-toxic to the cells (RAW cells; RAW cells, MTT): up to 312.5 μg/ml
CT50 (dose cytotoxic to 50% of the cells) (RAW cells; RAW cells, MTT, 12 h): 889.2 µg/mL
less cytotoxic than the standard antifungal drug Amphotericin B (RAW cells; comparison with Amphotericin B): 57.8 times
